pEC50: −log10 of the molar value. Several values for one entry are separate records, joined by “and”; a condition that tells them apart may be missing. Equal entries are not always repeated. Where two headings read alike, the source gives them in different places.
Columns and labels:
[1] = system: p-sites in DNA-damaged AsPC-1 cells; experiment: decryptM dose-resolved phosphoproteomics of ATRi in GEM-pre-treated cells; format: cell-based, human; settings: for pEC50 / EC50: Homo sapiens
In short: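 AsPC-1 cells were treated at 0.2% final DMSO, with vehicle lysis at time 0, and lysed in 2% SDS/Tris pH 7.6. Tryptic digests were TMT-11plex labeled and fractionated by basic reversed-phase chromatography. Phosphopeptides were enriched by Fe(III)-NTA IMAC.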

PANC-1 cells = experiment: Cell proliferation assay, GEM + ATR inhibitor (Incucyte confluence, 72 h); settings: for EC50 / pEC50: Homo sapiens; for pEC50: PANC-1, PANC-1; for Curve bottom / Curve top: PANC-1, plateau of fitted curve, ratio drug/vehicle confluence;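 on all read-outs here: PANC-1 confluence at 72 h taken as raw values, not normalized to starting confluence, with each experiment run in triplicate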;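 on pEC50: in combination experiments GEM is titrated while ATRi is held at a fixed sub-EC50 dose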
Experimental: Cells were seeded at 5000 cells/well into 96-well flat bottom plates (Eppendorf) and allowed to attach overnight. […] Cells were incubated for 72 h at 37 °C and 5% CO2. Cell confluence readouts at 72 h were either normalized to their initial confluence using the Incucyte software (AsPC-1) or used without prior normalization (all others). […] Each experiment was performed in triplicates, the data was plotted as mean ± standard deviation (s.d.).

CNCc1ccc(-c2cc(-c3nc(-c4ccc(S(=O)(=O)C(C)C)cc4)cnc3N)on2)cc1 [Berzosertib]
Log2 PTM response (GEM+ATRi vs. GEM) ([1]; AASDHPPT-pS258): -2 | Log2 PTM response (GEM+ATRi vs. GEM) ([1]; BRCA1-pS1239): -1.2 | Log2 PTM response (GEM+ATRi vs. GEM) ([1]; BRD8-pS621): -2.5 | Log2 PTM response (GEM+ATRi vs. GEM) ([1]; CDKN2AIP-pS198): -2 | Log2 PTM response (GEM+ATRi vs. GEM) ([1]; CHEK1-pS317): -2.8 | Log2 PTM response (GEM+ATRi vs. GEM) ([1]; CHEK1-pS468): -2.9 | Log2 PTM response (GEM+ATRi vs. GEM) ([1]; DHX9-pS321): -2.3 | Log2 PTM response (GEM+ATRi vs. GEM) ([1]; EXO1-pS714): -2.7 | Log2 PTM response (GEM+ATRi vs. GEM) ([1]; FANCD2-pS319): -2.6 | Log2 PTM response (GEM+ATRi vs. GEM) ([1]; HDGF-pS103): -2.4 | Log2 PTM response (GEM+ATRi vs. GEM) ([1]; HMGA1-pS9): -3 | Log2 PTM response (GEM+ATRi vs. GEM) ([1]; HMGA1-pS36;S44): -1.4 | Log2 PTM response (GEM+ATRi vs. GEM) ([1]; HMGA1-pS44): -2.9 | Log2 PTM response (GEM+ATRi vs. GEM) ([1]; HSPA4-pS552): -2.1 | Log2 PTM response (GEM+ATRi vs. GEM) ([1]; HTATSF1-pS481): -2 | pEC50 ([1]; ASPC1, read-out: EC50 of the majority of pSQ/pTQ sites): ~7.00 | EC50 ([1]; ASPC1, read-out: pEC50 of the majority of pSQ/pTQ sites (converted)): ~100 nM | pEC50 ([1]; ASPC1, p-site dose-response in GEM-pre-treated cells, read-out: EC50, PPM1G S201): 7.21 | pEC50 ([1]; ASPC1, p-site dose-response in GEM-pre-treated cells, read-out: EC50, RALY S176): 6.90 | EC50 ([1]; ASPC1, p-site dose-response in GEM-pre-treated cells, read-out: pEC50, PPM1G S201 (converted)): 61.7 nM | EC50 ([1]; ASPC1, p-site dose-response in GEM-pre-treated cells, read-out: pEC50, RALY S176 (converted)): 126 nM | pEC50 ([1]; ASPC1, read-out: median EC50 across all drug-regulated pSQ/pTQ-sites): 6.73 | Log2 PTM response (GEM+ATRi vs. GEM) ([1]; LRRC42-pS385): -3.3 | Log2 PTM response (GEM+ATRi vs. GEM) ([1]; NBN-pS397): -1.8 | Log2 PTM response (GEM+ATRi vs. GEM) ([1]; NBN-pS615): -0.9 | Log2 PTM response (GEM+ATRi vs. GEM) ([1]; NSUN5-pS432): -3.5 | Log2 PTM response (GEM+ATRi vs. GEM) ([1]; PELP1-pS1033): -1.4 | Log2 PTM response (GEM+ATRi vs. GEM) ([1]; PHF14-pS294): -1.9 | Log2 PTM response (GEM+ATRi vs. GEM) ([1]; PNISR-pS706): -2.2 | Log2 PTM response (GEM+ATRi vs. GEM) ([1]; PPM1G-pS201): -3.5 | Log2 PTM response (GEM+ATRi vs. GEM) ([1]; PPP6R3-pS825): -1.4 | Log2 PTM response (GEM+ATRi vs. GEM) ([1]; PSMD4-pS266): -1.6 | Log2 PTM response (GEM+ATRi vs. GEM) ([1]; RAD18-pS368): -1 | Log2 PTM response (GEM+ATRi vs. GEM) ([1]; RIF1-pS1873): -2.2 | Log2 PTM response (GEM+ATRi vs. GEM) ([1]; SNRPA-pS115): -1.2 | Log2 PTM response (GEM+ATRi vs. GEM) ([1]; TCEA1-pS100;S97): -1 | Log2 PTM response (GEM+ATRi vs. GEM) ([1]; TCEB3-pS251): -2.1 | Log2 PTM response (GEM+ATRi vs. GEM) ([1]; TOPBP1-pS1504): -1.9 | Log2 PTM response (GEM+ATRi vs. GEM) ([1]; TSEN34-pS136): -1.2 | Log2 PTM response (GEM+ATRi vs. GEM) ([1]; UHRF1-pS393): -2.3 | Log2 PTM response (GEM+ATRi vs. GEM) ([1]; UIMC1-pS171): -1.5 | Log2 PTM response (GEM+ATRi vs. GEM) ([1]; ZC3H14-pS135): -1.5 | ATRi Regulation (Curve), PPM1G S201 ([1]; classified by CurveCurator): down | ATRi Regulation (Curve), RALY S176 ([1]; classified by CurveCurator): down | PTM response (norm. to 1 µM GEM) ([1]; source data 4B (p-site not named), 1 µM GEM + ATRi 1 nM): 1.08 | PTM response (norm. to 1 µM GEM) ([1]; source data 4B (p-site not named), 1 µM GEM + ATRi 3 nM): 1.06 | PTM response (norm. to 1 µM GEM) ([1]; source data 4B (p-site not named), 1 µM GEM + ATRi 10 nM): 0.94 | PTM response (norm. to 1 µM GEM) ([1]; source data 4B (p-site not named), 1 µM GEM + ATRi 30 nM): 1.20 | PTM response (norm. to 1 µM GEM) ([1]; source data 4B (p-site not named), 1 µM GEM + ATRi 100 nM): 0.78 | PTM response (norm. to 1 µM GEM) ([1]; source data 4B (p-site not named), 1 µM GEM + ATRi 300 nM): 0.40 | PTM response (norm. to 1 µM GEM) ([1]; source data 4B (p-site not named), 1 µM GEM + ATRi 1000 nM): 0.20 | PTM response (norm. to 1 µM GEM) ([1]; source data 4B (p-site not named), 1 µM GEM + ATRi 3000 nM): 0.14 | PTM response (norm. to 1 µM GEM) ([1]; source data 4B (p-site not named), 1 µM GEM + ATRi 10000 nM): 0.15 | PTM response (norm. to 1 µM GEM) ([1]; source data 5B (p-site not named), 1 µM GEM + ATRi 1 nM): 0.81 | PTM response (norm. to 1 µM GEM) ([1]; source data 5B (p-site not named), 1 µM GEM + ATRi 3 nM): 0.96 | PTM response (norm. to 1 µM GEM) ([1]; source data 5B (p-site not named), 1 µM GEM + ATRi 10 nM): 0.69 | PTM response (norm. to 1 µM GEM) ([1]; source data 5B (p-site not named), 1 µM GEM + ATRi 30 nM): 0.83 | PTM response (norm. to 1 µM GEM) ([1]; source data 5B (p-site not named), 1 µM GEM + ATRi 100 nM): 0.51 | PTM response (norm. to 1 µM GEM) ([1]; source data 5B (p-site not named), 1 µM GEM + ATRi 300 nM): 0.19 | PTM response (norm. to 1 µM GEM) ([1]; source data 5B (p-site not named), 1 µM GEM + ATRi 1000 nM): 0.12 | PTM response (norm. to 1 µM GEM) ([1]; source data 5B (p-site not named), 1 µM GEM + ATRi 3000 nM): 0.13 | PTM response (norm. to 1 µM GEM) ([1]; source data 5B (p-site not named), 1 µM GEM + ATRi 10000 nM): 0.12 | EC50 (PANC-1 cells; PANC-1, 72 h, read-out: EC50 mean [nM], PANC-1, experiment ATRi (ATR inhibitor alone), mean of replicates): 22200 nM | pEC50 (PANC-1 cells; experiment ATRi (ATR inhibitor alone), replicates R1-R3): 4.50 | pEC50 (PANC-1 cells; experiment GEM+ATRi_dose1, replicates R1-R3): 8.32 | pEC50 (PANC-1 cells; experiment GEM+ATRi_dose2, replicates R1-R3): 8.22 | pEC50 (PANC-1 cells; experiment GEM+ATRi_dose3, replicates R1-R3): 8.49 | EC50 (PANC-1 cells; PANC-1, read-out: EC50 mean [nM], PANC-1, experiment ATRi (ATR inhibitor alone), mean of replicates): 22200 nM | EC50 (PANC-1 cells; PANC-1, read-out: EC50 mean [nM], PANC-1, experiment GEM+ATRi_dose1, mean of replicates): 4.43 nM | EC50 (PANC-1 cells; PANC-1, read-out: EC50 mean [nM], PANC-1, experiment GEM+ATRi_dose2, mean of replicates): 5.92 nM | EC50 (PANC-1 cells; PANC-1, read-out: EC50 mean [nM], PANC-1, experiment GEM+ATRi_dose3, mean of replicates): 4.05 nM | EC50 (PANC-1 cells; PANC-1, read-out: pEC50, PANC-1 (converted), experiment ATRi (ATR inhibitor alone), -log10 of EC50 [M]): 31600 nM | EC50 (PANC-1 cells; PANC-1, read-out: pEC50, PANC-1 (converted), experiment GEM+ATRi_dose1, replicates R1-R3, -log10 of EC50 [M]): 4.79 nM | EC50 (PANC-1 cells; PANC-1, read-out: pEC50, PANC-1 (converted), experiment GEM+ATRi_dose2, replicates R1-R3, -log10 of EC50 [M]): 6.03 nM | EC50 (PANC-1 cells; PANC-1, read-out: pEC50, PANC-1 (converted), experiment GEM+ATRi_dose3, replicates R1-R3, -log10 of EC50 [M]): 3.24 nM | Curve bottom (PANC-1 cells; experiment ATRi (ATR inhibitor alone)): 1.01 and 0.99 | Curve top (PANC-1 cells; experiment GEM+ATRi_dose1): 0.60 and 0.57 | Curve top (PANC-1 cells; experiment GEM+ATRi_dose2): 0.57 and 0.55 | Curve bottom (PANC-1 cells; experiment GEM+ATRi_dose3): 0.93 and 0.91 | Curve top (PANC-1 cells; experiment GEM+ATRi_dose3): 0.55 and 0.54

Reference: PMC11876601 (Molecular Systems Biology, 2025)
